In experiment [1] the target is T1, human orexin 1 receptor (Homo sapiens, UniProt O43613).
T1 construct: expressed in transfected cells
T1 sequence (O43613 1-425): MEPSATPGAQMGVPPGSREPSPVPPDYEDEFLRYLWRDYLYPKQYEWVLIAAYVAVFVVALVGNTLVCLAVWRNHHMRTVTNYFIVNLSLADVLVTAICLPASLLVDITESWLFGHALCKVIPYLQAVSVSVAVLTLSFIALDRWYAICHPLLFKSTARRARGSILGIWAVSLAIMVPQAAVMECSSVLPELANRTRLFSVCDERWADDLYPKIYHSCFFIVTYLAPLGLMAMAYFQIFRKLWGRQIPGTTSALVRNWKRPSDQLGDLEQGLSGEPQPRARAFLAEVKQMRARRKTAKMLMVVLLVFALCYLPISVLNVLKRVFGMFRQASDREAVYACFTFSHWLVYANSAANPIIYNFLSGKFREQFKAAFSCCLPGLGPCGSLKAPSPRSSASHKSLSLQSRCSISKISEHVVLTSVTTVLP
Nature of the experiment: Calcium accumulation in cells (FLIPR), antagonism of orexin A, human orexin 1 receptor. The experiment is classed as cell-based. As to conditions: for Ki: calcium accumulation, antagonism of orexin A, Cheng-Prusoff corrected, read-out: FLIPR hOx1R Ki.

For experiment [2], the target named is T2, human orexin 2 receptor (Homo sapiens, UniProt O43614).
T2 construct: expressed in transfected cells
T2 sequence (O43614 1-444): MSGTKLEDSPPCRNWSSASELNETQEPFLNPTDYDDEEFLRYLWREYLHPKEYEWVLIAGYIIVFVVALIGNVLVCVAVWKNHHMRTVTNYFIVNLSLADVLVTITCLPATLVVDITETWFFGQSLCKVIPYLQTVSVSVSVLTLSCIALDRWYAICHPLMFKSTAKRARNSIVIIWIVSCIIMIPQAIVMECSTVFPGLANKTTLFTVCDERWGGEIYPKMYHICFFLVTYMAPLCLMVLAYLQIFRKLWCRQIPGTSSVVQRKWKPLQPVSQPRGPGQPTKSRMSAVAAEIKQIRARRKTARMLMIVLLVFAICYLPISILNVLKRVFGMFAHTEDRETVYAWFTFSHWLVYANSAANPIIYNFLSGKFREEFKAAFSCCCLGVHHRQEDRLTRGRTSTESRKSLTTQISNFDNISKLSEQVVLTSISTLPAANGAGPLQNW
Nature of the experiment: Calcium accumulation in cells (FLIPR), antagonism of orexin A, human orexin 2 receptor. The experiment is classed as cell-based. Particulars: calcium accumulation, antagonism of orexin A, Cheng-Prusoff corrected; read-out: FLIPR hOx2R Ki.

Experiment [3] has as its target T1, human orexin 1 receptor. As to the kind of experiment: Radioligand binding assay ([3H]-SB649868 competition), human orexin 1 receptor. Particulars: radioligand [3H]-SB649868; read-out: Binding hOx1R Kd. Here is the method: (§1) Radioligand Binding Assay
(§2) For crude cell membrane preparations, cells (CHO, Chinese hamster ovary or HEK, human embryonic kidney) expressing human orexin 1 or human orexin 2 receptors, were washed with HEPES (10 mM, pH 7.5), scraped off the culture plates with the same buffer, and centrifuged at 4° C. for 5 min at 2500×g. The cell pellet was either stored at −80° C. or used directly. Before the experiments, cell membranes were re-suspended in binding assay buffer (10 mM HEPES, 0.5% (w/v) bovine serum albumin, pH 7.5) by homogenisation with a Polytron homogeniser at 50 Hz for 20 s. Cell membranes were also used as made available by commercial providers.
(§3) Bound radioactivity was measured, and data were analysed with the program XLFIT or Graphpad Prism. Protein concentration was determined according to the Bradford/BioRad Protein Assay Kit.
(§4) In competition experiments, cell homogenates (150 μl) were incubated in assay buffer (10 mM HEPES, pH 7.5, 0.5% (w/v) bovine serum albumin, 5 mM MgCl2, 1 mMCaCl2, and tween 0.05%) for 1 h at room temperature with about 1 nM of the radioligand [^3H]-SB649868, 66 Ci/mmole, 50 μl), and with various concentrations of compounds of the invention (50 μl) in triplicates; non-specific binding was determined in the presence of almorexant (10 μM). Reactions were terminated by vacuum filtration, 3 washes of ice cold wash buffer (Tris-HCl pH 7.4/10 mM, with NaCl 154 mM). Competition data is expressed in Table 1 as Kd [μM].

Experiment [4] has as its target T2, human orexin 2 receptor. As to the kind of experiment: Radioligand binding assay ([3H]-SB649868 competition), human orexin 2 receptor. Particulars: radioligand [3H]-SB649868; read-out: Binding hOx2R Kd. Here is the method: as §1, §2, §3, §4

Usually Ki stands for the equilibrium dissociation constant of an inhibitor or competing ligand from its target. One may read the Kd as the concentration at which binding is half-saturated. Consider `CCc1cc(C)nc(N2CCC3(CC2)OCCN(Cc2c[nH]c4ccccc24)C3=O)n1` [Example 2.23, 4-((1H-indol-3-yl)methyl)-9-(4-ethyl-6-methylpyrimidin-2-yl)-1-oxa-4,9-diazaspiro[5.5]undecan-5-one], for which the Ki turned out to be 582 nM at human orexin 1 receptor [1] and 37 nM at human orexin 2 receptor [2]. For the same molecule, the Kd at human orexin 1 receptor [3] is 1570 nM; on human orexin 2 receptor [4], 68 nM.

Consider `COc1cccc(-c2ocnc2CN2CCNC3(CCN(c4nccc(C)n4)CC3)C2=O)c1` [Example 1.10, 4-((5-(3-Methoxyphenyl)oxazol-4-yl)methyl)-9-(4-methyl-pyrimidin-2-yl)-1,4,9-triazaspiro[5.5] undecan-5-one], for which the figures for the Ki at human orexin 1 receptor [1] and on human orexin 2 receptor [2] were 2610 nM and 84 nM, respectively. Moreover, the Kd at human orexin 1 receptor [3] came to 3970 nM; on human orexin 2 receptor [4] it was 164 nM.

Turning to `COc1cc(C)nc(N2CCC3(CCCN(Cc4n[nH]c5ccccc45)C3=O)C2)n1` (stereo not drawn) [Example 7.12, 7-((1H-indazol-3-yl)methyl)-2-(4-methoxy-6-methylpyrimidin-2-yl)-2,7-diazaspiro[4.5]decan-6-one], the Ki on human orexin 1 receptor [1] is 309 nM; on human orexin 2 receptor [2] it was 48 nM. For the same molecule, the values for the Kd at human orexin 1 receptor [3] and on human orexin 2 receptor [4] were 173 nM and 138 nM, respectively.

In the case of `COc1cccc(-c2ocnc2CN2CCNC3(CCN(c4nc(C)cc(C#N)n4)CC3)C2=O)c1` [Example 1.11, 2-(4-((5-(3-Methoxyphenyl)oxazol-4-yl)methyl)-5-oxo-1,4,9-triazaspiro[5.5]undecan-9-yl)-6-methylpyrimidine-4-carbonitrile], the results for the Ki on human orexin 1 receptor [1] and at human orexin 2 receptor [2] were 2660 nM and 10 nM, respectively. Also, the Kd at human orexin 1 receptor [3] is 2220 nM; at human orexin 2 receptor [4] it was 37 nM.

Turning to `Cc1ccc(C)c(CN2C(=O)CCC23CCN(c2cnc4ccccc4n2)CC3)c1` [Example 8.5, 1-(2,5-Dimethylbenzyl)-8-(quinoxalin-2-yl)-1,8-diazaspiro[4.5]decan-2-one], the Ki on human orexin 1 receptor [1] was determined as 100 nM; on human orexin 2 receptor [2] it was 7.6 nM. The Kd on human orexin 1 receptor [3] is 81 nM; at human orexin 2 receptor [4], 77 nM.

For the molecule `Cc1cc(C)nc(N2CCC3(CC2)OCCN(Cc2n[nH]c4ccccc24)C3=O)n1` [Example 2.2, 9-(4,6-Dimethyl-pyrimidin-2-yl)-4-(1H-indazol-3-ylmethyl)-1-oxa-4,9-diaza-spiro[5.5]undecan-5-one], the Ki on human orexin 1 receptor [1] was determined as 1800 nM; on human orexin 2 receptor [2], 55 nM. Also, the Kd at human orexin 1 receptor [3] turned out to be 1840 nM; on human orexin 2 receptor [4] it was 71 nM.

Turning to `COc1cc(C)nc(N2CC[C@@]3(CCCN(Cc4c[nH]c5ccccc45)C3=O)C2)n1` (single isomer, unassigned) [Example 7.10], the Ki at human orexin 1 receptor [1] is 139 nM; at human orexin 2 receptor [2] it was 14 nM. In addition, the Kd on human orexin 1 receptor [3] amounted to 750 nM; at human orexin 2 receptor [4], 238 nM.

Consider `COc1cccc(-c2n[nH]nc2CN2CCOC3(CCN(c4nc(C)cc(C)n4)CC3)C2=O)c1` [Example 2.17, 9-(4,6-Dimethylpyrimidin-2-yl)-4-((5-(3-methoxyphenyl)-2H-1,2,3-triazol-4-yl)methyl)-1-oxa-4,9-diazaspiro[5.5]undecan-5-one], for which the inhibition constant (Ki) on human orexin 1 receptor [1] came to 220 nM; at human orexin 2 receptor [2], 1 nM. The Kd at human orexin 1 receptor [3] was 363 nM; at human orexin 2 receptor [4], 16 nM.

Turning to `Cc1cc(C)nc(N2CCC3(CC2)OCCN(Cc2n[nH]cc2-c2ccccc2)C3=O)n1` [Example 2.13, 9-(4,6-Dimethylpyrimidin-2-yl)-4-((4-phenyl-1H-pyrazol-3-yl)methyl)-1-oxa-4,9-diazaspiro[5.5]undecan-5-one], the Ki on human orexin 1 receptor [1] came out at 1500 nM; on human orexin 2 receptor [2], 38 nM. The Kd on human orexin 1 receptor [3] is 1560 nM; at human orexin 2 receptor [4], 143 nM.

As for `COc1ccc2[nH]cc(CN3CCNC4(CCN(c5nc(C)cc(C)n5)CC4)C3=O)c2c1` [Example 1.34, 9-(4,6-Dimethyl-pyrimidin-2-yl)-4-((5-methoxy-1H-indol-3-yl)methyl)-1,4,9-triazaspiro[5.5] undecan-5-one], the Ki is 494 nM on human orexin 1 receptor [1] and 1 nM on human orexin 2 receptor [2]. The Kd at human orexin 1 receptor [3] came to 234 nM; at human orexin 2 receptor [4], 4 nM.

Consider `Cc1cc(C)nc(N2CCC3(CC2)NCCN(Cc2nn(C)cc2-c2cccc(OC4CC4)c2)C3=O)n1` [Example 1.62, 4-((4-(3-Cyclo-propoxyphenyl)-1-methyl-1H-pyrazol-3-yl)methyl)-9-(4,6-dimethyl-pyrimidin-2-yl)-1,4,9-triazaspiro[5.5] undecan-5-one], for which the inhibition constant Ki amounted to 163 nM on human orexin 1 receptor [1] and 1 nM on human orexin 2 receptor [2]. The Kd came to 142 nM on human orexin 1 receptor [3] and 8 nM at human orexin 2 receptor [4].

With `O=C1COCC2(CCN(c3cnc4ccccc4n3)CC2)N1Cc1cccc2[nH]ccc12` [Example 8.9, 1-((1H-Indol-4-yl)methyl)-9-(quinoxalin-2-yl)-4-oxa-1,9-diazaspiro[5.5]undecan-2-one], the Ki at human orexin 1 receptor [1] turned out to be 320 nM; at human orexin 2 receptor [2], 29 nM. The Kd on human orexin 1 receptor [3] came out at 429 nM; at human orexin 2 receptor [4], 136 nM.

In the case of `O=C1N(Cc2c[nH]c3ccccc23)CCC12CCN(c1cnc3ccccc3n1)CC2` [Example 3.2, 2-((1H-Indol-3-yl)methyl)-8-(quinoxalin-2-yl)-2,8-diazaspiro[4.5]decan-1-one], the results for the Ki on human orexin 1 receptor [1] and on human orexin 2 receptor [2] were 1060 nM and 41 nM, respectively. For the same molecule, the Kd on human orexin 1 receptor [3] turned out to be 920 nM; at human orexin 2 receptor [4] it was 121 nM.

On to `Cc1cc(C)nc(N2CCC3(CC2)NCCN(Cc2nn(C)nc2-c2cccc(N4CCOCC4)c2)C3=O)n1` [Example 1.77], for which the Ki on human orexin 1 receptor [1] came to 2880 nM; on human orexin 2 receptor [2], 56 nM. In addition, the Kd at human orexin 1 receptor [3] came out at 2840 nM; at human orexin 2 receptor [4] it was 225 nM.

With `CCC(=O)c1cccc(-c2cn(C)nc2CN2CCNC3(CCN(c4nc(C)cc(C)n4)CC3)C2=O)c1` [Example 1.70, 9-(4,6-dimethyl-pyrimidin-2-yl)-4-((1-methyl-4-(3-propionylphenyl)-1H-pyrazol-3-yl)methyl)-1,4,9-triazaspiro[5.5] undecan-5-one], the Ki on human orexin 1 receptor [1] amounted to 856 nM; on human orexin 2 receptor [2] it was 2 nM. In addition, the Kd on human orexin 1 receptor [3] turned out to be 465 nM; at human orexin 2 receptor [4], 21 nM.

Turning to `COc1cncc(-c2cn(C)nc2CN2CCNC3(CCN(c4nc(C)cc(C)n4)CC3)C2=O)c1` [Example 1.55, 9-(4,6-Dimethyl-pyrimidin-2-yl)-4-((4-(5-methoxypyridin-3-yl)-1-methyl-1H-pyrazol-3-yl)methyl)-1,4,9-triazaspiro[5.5] undecan-5-one], the inhibitory constant (Ki) at human orexin 2 receptor [2] came out at 16 nM. Moreover, the dissociation constant Kd worked out at 5870 nM on human orexin 1 receptor [3] and 162 nM at human orexin 2 receptor [4].

For orientation: inhibition means the change of the read-out against control, counted positive when it falls. Turning to `COc1cccc(-c2oc(C)nc2CN2CCNC3(CCN(c4nc(C)cc(C#N)n4)CC3)C2=O)c1` [Example 1.16, 2-(4-((5-(3-Methoxyphenyl)-2-methyloxazol-4-yl)methyl)-5-oxo-1,4,9-triazaspiro[5.5]undecan-9-yl)-6-methylpyrimidine-4-carbonitrile], the inhibition at 10 µM at human orexin 1 receptor [1] (measured at a concentration of 10 μM of compound, read-out: FLIPR hOx1R % inhibition) was found to be 35%. Moreover, the Ki on human orexin 2 receptor [2] was found to be 31 nM. For the same molecule, at human orexin 2 receptor [4], the Kd amounted to 188 nM.

Consider `COc1cc(C)nc(N2CCC3(CCN(Cc4c[nH]c5ccccc45)C3=O)CC2)n1` [Example 3.18, 2-(1H-Indol-3-ylmethyl)-8-(4-methoxy-6-methyl-pyrimidin-2-yl)-2,8-diaza-spiro[4.5]decan-1-one], for which the Ki was found to be 1240 nM at human orexin 1 receptor [1] and 37 nM at human orexin 2 receptor [2]. Moreover, on human orexin 2 receptor [4], the Kd was 1030 nM.

Values taken from patent US20120165331A1, “Di/tri-aza-spiro-C9-C11alkanes” (priority 2010, published 2012).
